According to ChEMBL document CHEMBL5550126, “Identification of naphthalimide-derivatives as novel PBD-targeted polo-like kinase 1 inhibitors with efficacy in drug-resistant lung cancer cells” (Eur J Med Chem, 2024):
Active and inactive are the calls of the source. The calls are words filed in the database; no cut-off is given here.

Tests used:
A549/CDDP [1] = assay: Disruption of redox homeostasis in human A549/DDP cells assessed as increase in ROS level at 0 to 9 uM measured after 48 hrs; assay type: functional, cell-based; conditions: dose 0-9 µM
T-24 = assay: Anticancer activity against human T24 cells assessed as inhibition of cell growth incubated for 48 hrs by crystal violet staining based analysis; assay type: functional; conditions: T-24, 48 h
SK-OV-3 = assay: Anticancer activity against human SK-OV-3 cells assessed as inhibition of cell growth incubated for 48 hrs by crystal violet staining based analysis; assay type: functional; conditions: SK-OV-3, 48 h
MGC-803 = assay: Anticancer activity against human MGC-803 cells assessed as inhibition of cell growth incubated for 48 hrs by crystal violet staining based analysis; assay type: functional; conditions: MGC-803, 48 h
[2] = biological target: T1, Serine/threonine-protein kinase PLK1 (Homo sapiens, UniProt P53350); assay: Inhibition of PLK1 in human A549/DDP cells assessed as reduction in protein abundance measured after 48 hrs by Western blot analysis; assay type: cell-based
T1 sequence (P53350 whole entry): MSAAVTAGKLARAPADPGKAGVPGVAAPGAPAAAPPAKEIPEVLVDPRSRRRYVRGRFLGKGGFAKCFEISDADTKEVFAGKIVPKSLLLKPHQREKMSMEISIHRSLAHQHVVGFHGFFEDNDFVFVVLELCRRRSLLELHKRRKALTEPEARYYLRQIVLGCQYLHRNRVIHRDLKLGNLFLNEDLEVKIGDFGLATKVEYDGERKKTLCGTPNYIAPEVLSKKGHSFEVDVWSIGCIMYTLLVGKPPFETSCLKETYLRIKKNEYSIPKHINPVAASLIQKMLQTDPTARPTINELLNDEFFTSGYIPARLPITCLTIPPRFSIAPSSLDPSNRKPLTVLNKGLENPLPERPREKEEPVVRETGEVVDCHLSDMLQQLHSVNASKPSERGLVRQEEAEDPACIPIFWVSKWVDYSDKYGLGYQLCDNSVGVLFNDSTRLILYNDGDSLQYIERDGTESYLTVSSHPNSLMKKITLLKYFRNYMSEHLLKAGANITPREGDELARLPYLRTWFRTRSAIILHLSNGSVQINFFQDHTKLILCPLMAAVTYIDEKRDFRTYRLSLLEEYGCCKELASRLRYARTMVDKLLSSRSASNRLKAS

A549/CDDP [3] = assay: Induction of cell cycle arrest at G2/M phase in human A549/DDP cells at 0 to 15 uM measured after 48 hrs by RNase A/PI staining based flow cytometry analysis; assay type: functional; conditions: dose 0-15 µM
A549 [4] = assay: Anticancer activity against human A549 cells assessed as inhibition of cell growth incubated for 48 hrs by crystal violet staining based analysis; assay type: functional; conditions: A549, 48 h
[5] = biological target: T1, Serine/threonine-protein kinase PLK1; assay: Binding affinity to recombinant PLK1 (unknown origin) assessed as signal attenuation at 200 uM by NMR analysis
[6] = biological target: T1, Serine/threonine-protein kinase PLK1; assay: Binding affinity to FLAG-tagged PLK1 kinase region (unknown origin) transfected in human A549 cells at 10 uM incubated for 1 hr by coimmunoprecipitation-MS analysis; assay type: cell-based
[7] = biological target: T1, Serine/threonine-protein kinase PLK1; assay: Binding affinity to FLAG-tagged PLK1 PBD region (unknown origin) transfected in human A549 cells at 10 uM incubated for 1 hr by coimmunoprecipitation-MS analysis; assay type: cell-based
A549/CDDP [8] = assay: Effect on p-CDK2 protein expression in human A549/DDP cells assessed as effect on protein abundance at 0 to 6 uM measured after 48 hrs by Western blot analysis; assay type: functional, cell-based; conditions: dose 0-6 µM
A549 [9] = assay: Disruption of PLK1-PRC1 protein protein interaction in human A549 cells assessed as reduction in amount of PLK1 captured by PRC1 antibody at 6 uM measured after 48 hrs by Co-IP analysis; assay type: cell-based
A549 [10] = assay: Induction of mitotic catastrophe in human A549 cells assessed as appearance of multinucleated cells during mitosis at 1.5 uM measured after 48 hrs by immunostaining based laser confocal microscopic analysis; assay type: functional, cell-based
A549 [11] = assay: Induction of mitotic catastrophe in human A549 cells assessed as downregulation of CDC25 protein expression at 1.5 to 6 uM measured after 48 hrs by Western blot analysis; assay type: functional, cell-based; conditions: dose 1.5-6 µM
[12] = GSH reactivity in human A549/DDP cells assessed as increase in fluorescence intensity measured after 48 hrs; assay type: ADME, cell-based; conditions: dose 0-9 µM
A549/CDDP [13] = assay: Disruption of redox homeostasis in human A549/DDP cells assessed as induction of cell death; assay type: functional, cell-based
A549/CDDP [14] = assay: Antitumor activity against human A549/DDP cells assessed as male BALB/c nude mouse assessed as tumor growth inhibition at 50 mg/kg, ip administered every 2 days for 32 days and measured 3 times a week relative to control; assay type: functional; conditions: 768 h, time 32 day, read-out: TGI
A549/CDDP [15] = assay: Antitumor activity against human A549/DDP cells assessed as male BALB/c nude mouse assessed as increase in survival time at 30 to 50 mg/kg, ip administered every 2 days for 32 days; assay type: functional, organism-based; conditions: dose 30-50 mg/kg, time 32.0 day
A549/CDDP [16] = assay: Antitumor activity against human A549/DDP cells assessed as male BALB/c nude mouse assessed as median survival time at 30 mg/kg, ip administered every 2 days for 32 days (reference value: 38 days); assay type: functional; conditions: time 32 day
[17] = Toxicity in male BALB/c nude mouse xenografted with human A549/DDP cells assessed as reduction in body weight at 30 to 50 mg/kg, ip administered every 2 days for 32 days and measured 3 times a week; assay type: organism-based, A549/CDDP; conditions: in vivo, 768 h, dose 30-50 mg/kg, time 32 day
[18] = Toxicity in male BALB/c nude mouse xenografted with human A549/DDP cells assessed as change in heart index at 30 mg/kg, ip administered every 2 days for 32 days; assay type: organism-based, A549/CDDP; conditions: in vivo, 768 h, time 32 day
[19] = Toxicity in male BALB/c nude mouse xenografted with human A549/DDP cells assessed as change in lung index at 30 to 50 mg/kg, ip administered every 2 days for 32 days; assay type: organism-based, A549/CDDP; conditions: in vivo, 768 h, dose 30-50 mg/kg, time 32 day
[20] = Toxicity in male BALB/c nude mouse xenografted with human A549/DDP cells assessed as kidney damage at 30 to 50 mg/kg, ip administered every 2 days for 32 days by H and E staining based analysis; assay type: organism-based, A549/CDDP; conditions: in vivo, 768 h, dose 30-50 mg/kg, time 32 day
[21] = Toxicity in male BALB/c nude mouse xenografted with human A549/DDP cells assessed as liver damage at 30 to 50 mg/kg, ip administered every 2 days for 32 days by H and E staining based analysis; assay type: organism-based, A549/CDDP; conditions: in vivo, 768 h, dose 30-50 mg/kg, time 32 day
[22] = Toxicity in male BALB/c nude mouse xenografted with human gefitinib resistant NCI-H1975 cells assessed as lung damage at 30 mg/kg, po administered every 2 days for 20 days and measured 3 times a week by H and E staining based analysis; assay type: organism-based; conditions: in vivo, 480 h, time 20 day
[23] = Toxicity in male BALB/c nude mouse xenografted with human gefitinib resistant NCI-H1975 cells assessed as heart damage at 30 mg/kg, po administered every 2 days for 20 days and measured 3 times a week by H and E staining based analysis; assay type: organism-based; conditions: in vivo, 480 h, time 20 day
[24] = Toxicity in male BALB/c nude mouse xenografted with human gefitinib resistant NCI-H1975 cells assessed as kidney damage at 30 mg/kg, po administered every 2 days for 20 days and measured 3 times a week by H and E staining based analysis; assay type: organism-based; conditions: in vivo, 480 h, time 20 day

Structure (SMILES): CN(C)CCN1C(=O)c2cccc3c(S(=O)(=O)NCc4ccc(F)cc4)ccc(c23)C1=O
- Activity (A549/CDDP [1]): Active
- IC50 (T-24): 2900 nM
- IC50 (SK-OV-3): 2840 nM
- IC50 (MGC-803): 3.2 µM
- inhibition [2]: Active
- Activity (A549/CDDP [3]): Active
- IC50 (A549 [4]): 10.6 µM
- Activity [5]: Active
- Activity [6]: inactive
- Activity [7]: Active
- Activity (A549/CDDP [8]): Active
- Activity (A549 [9]): Active
- Activity (A549 [10]): Active
- Activity (A549 [11]): Active
- Drug metabolism [12]: Metabolite_Detected
- Activity (A549/CDDP [13]): Active
- inhibition in vivo at 50 mg/kg (A549/CDDP [14]): 62%
- Activity (A549/CDDP [15]): Active
- MSD (A549/CDDP [16]): 53 days
- Activity [17]: Non-Toxic
- Activity [18]: Toxic
- Activity [19]: Non-Toxic
- Activity [20]: Non-Toxic
- Activity [21]: Non-Toxic
- Activity [22]: Non-Toxic
- Activity [23]: Non-Toxic
- Activity [24]: Non-Toxic
